# Source: patent publication US4686231A, “Inhibition of 5-lipoxygenase products” (SmithKline Beckman Corporation, priority 1986, dated 1987)
# Legend:
# [1] = test system: Arachidonic acid-induced ear swelling; assay: Arachidonic acid-induced mouse ear inflammation (ear swelling); assay type: in vivo, male Balb/c mice; settings: for antiinflammatory activity (mouse ear edema): p.o.
# Experimental: In the following Examples male Balb/c mice (20-28 g) were used. All mice were obtained from Charles River Breeding Laboratories, Kingston, N.Y. Within a single experiment, mice were sex and age matched.
# The compounds of Formula (I), indomethacin, naproxen, and ibuprofen were each used as the free base. The compounds were homogenized in 0.5% tagacanth. Compounds were administered by gavage at the indicated dose in a final volume of 10 ml/kg. The compounds of Formula (I) were solubilized in dimethylacetamide and diluted with olive oil for subcantaneous administration.
# Arachidonic acid in acetone (2 mg/20 μl) was applied to the inner surface of the left ear. The thickness of both ears was then measured with a dial micrometer one hour after treatment, and the […] were expressed as the change in thickness (10^-3 cm) between treated and untreated ears.
# Test compounds were given orally in 0.5% tragacanth at the times indicated in the text prior to the topical application of arachidonic acid.
# Parenteral administration of compound was accomplished by subcutaneous injection of solution as indicated.
# 5-lipoxygenase [2] = biological target: T1, 5-lipoxygenase (Rattus norvegicus, UniProt P12527); assay: 5-lipoxygenase activity: LTB4 production by RBL-1 high speed supernatant; assay type: biochemical; settings: for IC50: RBL1 high speed supernatant, read-out: 5LO IC50 (LTB4 Production)
# T1 construct: The activities of these enzymes in extracts of RBL-1 cells were assayed; host or cells: RBL-1 cells, supernatant of broken cell extract
# T1 sequence (P12527 1-673): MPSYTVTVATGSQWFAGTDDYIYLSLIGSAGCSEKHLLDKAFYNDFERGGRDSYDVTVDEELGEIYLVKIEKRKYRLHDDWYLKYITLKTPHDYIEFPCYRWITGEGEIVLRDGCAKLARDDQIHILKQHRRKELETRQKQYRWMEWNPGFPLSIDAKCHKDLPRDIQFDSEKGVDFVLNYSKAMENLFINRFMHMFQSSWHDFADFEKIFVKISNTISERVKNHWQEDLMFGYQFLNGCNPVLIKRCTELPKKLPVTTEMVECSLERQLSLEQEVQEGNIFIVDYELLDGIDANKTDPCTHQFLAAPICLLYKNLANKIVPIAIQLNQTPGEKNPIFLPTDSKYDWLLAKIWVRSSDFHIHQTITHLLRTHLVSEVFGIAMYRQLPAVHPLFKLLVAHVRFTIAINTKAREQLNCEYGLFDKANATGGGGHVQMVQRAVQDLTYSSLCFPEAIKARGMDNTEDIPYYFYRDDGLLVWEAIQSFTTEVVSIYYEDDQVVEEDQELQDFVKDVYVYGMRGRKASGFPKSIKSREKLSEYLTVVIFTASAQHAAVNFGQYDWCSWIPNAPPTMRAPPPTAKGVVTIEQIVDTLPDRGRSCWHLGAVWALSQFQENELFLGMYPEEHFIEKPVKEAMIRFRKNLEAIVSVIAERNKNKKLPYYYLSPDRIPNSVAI
# Experimental: (§1) For in vitro experiments, compounds were dissolved at appropriate concentrations in ethanol (final concentration μ1.0%) and then diluted to final concentrations using the buffers indicated in the text.
# (§2) The activities of these enzymes in extracts of RBL-1 cells were assayed using the method of Jakschik and Lee, Nature, 287, 51-52 (1980). RBL-1 cells were obtained from the American Type Culture Collection (#CRL 1378) and were grown at 37° C. (5% CO2 in air) in spinner culture in MEM supplemented with 10% heat inactivated fetal calf serum. Harvested cells were washed with 50 mM sodium phosphate buffer, pH 7.0, containing 1 mM EDTA and 0.1% galatin, resuspended in fresh buffer (5×10^7 cells/ml) and disrupted by nitrogen cavitation using the Parr bomb at 750 psi for 10 min. The broken cell extract was then centrifuged at 10,000×g for 60 minutes (min). Aliquots (0.25 mls) of the supernatant were preincubated with or without drugs for 10 min, after which 10 μl CaCl2 (2 mM) of 2.5 mM arachidonic acid-1-^14 C (final concentration was […]; specific activity 20,000 dpm/nmole). After incubation for 5 min at […], the reaction was terminated by addition of 2 volumes (0.5 ml) ice cold acetone and the sample was allowed to deproteinize on ice for 10 min prior to centrifugation at 1,000×gfor 10 min. The deproteinized supernatant was adjusted to pH 3.5 with 2N formic acid and extracted with 2 volumes of ice cold ethyl acetate. The extracted samples were dried under argon, redissolved in ethyl acetate and applied to Whatman LK5D thin layer chromatography (TLC) plates which were developed using the A-9 solvent system [organic phase of ethyl acetate:2,2,5-trimethylpentane:acetic acid:water (110:50:20:10)] described by Hamberg and Samuelsson, J. Bio. Chem., 241, 257-263 (1966). Arachidonic acid, 5-HETE, LTB4 and PGD2 were quantified with a Berthold LB 2832 autoscanner.
# (§3) Drug-induced effects on enzyme activities are described as the concentration of drug causing a 50% inhibition of metabolite synthesis (IC50).
# 5-lipoxygenase [3] = biological target: T1, 5-lipoxygenase; assay: 5-lipoxygenase activity: 5-HETE production by RBL-1 high speed supernatant; assay type: biochemical; settings: RBL1 high speed supernatant; read-out: 5LO IC50 (5-HETE Production)
# Experimental: as §1, §2, §3
# [4] = test system: Arachidonic acid-induced ear swelling; assay: Arachidonic acid-induced mouse ear inflammation (ear swelling); assay type: in vivo, male Balb/c mice
# [5] = test system: LTC4 production by human monocytes; assay: LTC4 production by human monocytes; assay type: cell-based; settings: Monocyte, A23187-stimulated, 3 hours, drug added 30 minutes prior
# Experimental: as §1
# One of the compounds of Formula (I), i.e., Compound Number 8 from Table 1, was evaluated for its ability to inhibit the production of LTC4 by human monocytes according to the following protocol.
# Human monocytes were prepared from whole blood supplied by the American Red Cross. The blood was fractionated by a two-step procedure employing sedimentation on Ficoll followed by sedimentation on Percoll. The mononuclear cell fraction recovered was composed of 80-90% monocytes with the remainder of the cells being predominant lymphocytes. The monocytes were plated at 1×10^6 cells per well in a Costar 24 well tissue culture plat and allowed to adhere for one hour at 37° C. Non-adherent cells were removed by washing. The cells were stimulated with […] of A23187 calcium ionophore for 3 hours at 37° C. to induce LTC-4 produced when drugs were evaluated. They were added to the cells 30 minutes prior to the A23187. Supernatants were collected, clarified by centrifugation and store frozed at -20° C. until assay. The LTC-4 content was determined by using a New England Nuclear Leukotriene C-4 (^3 H) RIA Kit as per instructions.
# rheumatoid arthritis = settings: preliminary observation; cited from earlier work
# [6] = test system: LTB4 and 5-HETE production; settings: in vitro; cited from earlier work
# [7] = test system: area of infarction following coronary occlusion; settings: dogs; cited from earlier work
# lipoxygenase = settings: in vitro; cited from earlier work
# psoriasis = settings: in vivo; cited from earlier work
# [8] = 50 mg/kg s.c. or i.p., 2 mg arachidonic acid, 1 hour, * p .05, ** p .01, *** p .001
SMILES,"% Inhibition of Ear Swelling [1, 8]",IC50 (5-lipoxygenase [2]),IC50 (5-lipoxygenase [3]),other results
"N#CNc1nc(-c2ccc(F)cc2)c(-c2ccc(F)cc2)[nH]1 [Compound 5, 4,5-Bis(4-fluorophenyl)-2-cyanamido-imidazole or 4,5-Bis(4-fluorophenyl)-2-amino-1-cyano-imidazole]",59%,1 µM,8 µM,–
"COc1ccc2c(c1)c(CC(=O)O)c(C)n2C(=O)c1ccc(Cl)cc1 [indomethacin, reference compound]",–,–,–,antiinflammatory activity (mouse ear edema) ([1]; 10 mg/kg): did not exhibit detectable antiinflammatory activity; reduction of inflammation (mouse ear model) ([1]; arachidonic acid-induced): did not reduce inflammation or cell infiltration; inhibition of 5-lipoxygenase products (RBL-1 extract) (5-lipoxygenase [2]; concentrations up to 10^-4 M): inactive; reduction of cell infiltration (mouse ear model) [4]: did not reduce inflammation or cell infiltration
Fc1ccc(-c2nc(-c3ccc(F)cc3)c(-c3ccc(F)cc3)[nH]2)cc1 [Compound 7],15%,10 µM,10 µM,–
Fc1ccc(-c2[nH]c(S)nc2-c2ccncc2)cc1 [Compound 8],–,1.5 µM,17 µM,IC50 [5]: 0.8 µM
"CC(C)Cc1ccc(C(C)C(=O)O)cc1 (centres unmarked) [ibuprofen, reference compound]",–,–,–,antiinflammatory activity (mouse ear edema) ([1]; 250 mg/kg): did not exhibit detectable antiinflammatory activity
O=C(O)c1cc(/N=N/c2ccc(S(=O)(=O)Nc3ccccn3)cc2)ccc1O [sulfasalazine],–,–,–,"efficacy in rheumatoid arthritic patients (rheumatoid arthritis): efficacy, including remission; inhibition of LTB4 and 5-HETE production [6]: inhibit LTB4 and 5-HETE production in vitro"
"COc1ccc2cc([C@H](C)C(=O)O)ccc2c1 [naproxen, reference compound]",–,–,–,antiinflammatory activity (mouse ear edema) ([1]; 100 mg/kg): did not exhibit detectable antiinflammatory activity
"COc1ccc(-c2nc(NC#N)[nH]c2-c2ccc(OC)cc2)cc1 [Compound 4, 4,5-Bis(4-methoxyphenyl)-2-cyanamido-imidazole or 4,5-Bis(4-methoxyphenyl)-2-amino-1-cyano-imidazole]",46%,1.5 µM,3.1 µM,–
Fc1ccc(-c2[nH]c(SC(F)(F)C(F)F)nc2-c2ccncc2)cc1 [Compound 9],–,–,95 µM,–
COc1ccc(-c2nc(SC)n(C)c2-c2ccc(OC)cc2)cc1 [Compound 1],51%,13 µM,13 µM,–
O=S(=O)(c1nc(-c2ccc(F)cc2)c(-c2ccc(F)cc2)[nH]1)C(F)(F)C(F)F [Compound 2],41%,6.6 µM,16 µM,–
COc1ccc(-c2nc(C(F)(F)F)[nH]c2-c2ccc(OC)cc2)cc1 [Compound 6],–,1.1 µM,0.7 µM,"% Inhibition of Ear Swelling ([1]; 50 mg/kg, oral dosing (p.o.), ** p .01): 28%"
NC1=NN(c2cccc(C(F)(F)F)c2)CC1 [BW755-C],–,–,–,area of infarction following coronary occlusion [7]: reduced
CCSc1nc(-c2ccc(OC)cc2)c(-c2ccc(OC)cc2)n1CC [Compound 3],–,8.4 µM,10.4 µM,–
CC(C(=O)O)c1ccc2oc(-c3ccc(Cl)cc3)nc2c1 (centres unmarked) [benoxaprofen],–,–,–,lipoxygenase inhibitory activity (lipoxygenase): in vitro lipoxygenase inhibitory activity; effect on psoriasis (psoriasis): promising effect
